Values after ≈ are worked out from the molar mass of the structure shown.

The nature of data set [1]: physchem. The note with it: pH 7.4.
The nature of data set [2]: physchem. The conditions noted are these: pH 7.4, kinetic from dmso stock.
The subject of data set [3] is HepG2 cells. The conditions noted are these: HepG2, 48 h.
Data set [4] has as its system M. tuberculosis H37Rv in infected THP1 cells. Kind of data set: Intracellular assay (luciferase H37Rv in THP1 cells). Format: cell-based, Mycobacterium tuberculosis. The conditions noted are these: for IC50: Mycobacterium tuberculosis, H37RV, THP-1, 120 h, read-out: ACT In Intracellular pX50 (converted).
Data set [5] relates to M. tuberculosis H37Rv. Description: M. tuberculosis inhibition assay (MABA, resazurin) MIC. The note with it: Mycobacterium tuberculosis. It counts as cell-based.
Data set [6] has as its system M. bovis BCG Pasteur. Kind of data set: microbe, parasite or virus in culture. The conditions noted are these: for IC50: Mycobacterium tuberculosis variant bovis BCG, BCG, read-out: BCG pIC50 (converted). It counts as cell-based, Mycobacterium bovis BCG.
For data set [7], the system named is non-replicating M. tuberculosis H37Rv. Description: Activity against non-replicating Mycobacterium tuberculosis. The conditions noted are these: non-replicating conditions; for ACT In NR % inhibition: active/inactive call, experiments with inh > 50%.

Turning to `CNc1nc(SC)nnc1-c1cccc(Cl)c1Cl` [TCMDC-143661], in data set [1], the chromatographic logD turned out to be 4.94. Also, the concentration in solution in data set [2] (solubility) was 85 µg/mL (≈ 282 µM). Moreover, in data set [3], the “TOX50 HepG2” value was more than 100 µM. For the same molecule, the IC50 in data set [4] was 794 nM; in data set [6], 12600 nM. In data set [5], this molecule returned a minimal inhibitory concentration (MIC) of 2.5 µM (≈ 0.753 µg/mL). Moreover, the “Mtb specific (inactive against M. bovis BCG)” value in data set [6] (hit in Mtb screen, not in BCG screen) is given as “Mtb specific”. The “ACT In NR % inhibition” value in data set [7] is listed as “INACTIVE”.
Molecule `O=C(NCc1ccco1)N1CCN(Cc2ccc3c(c2)OCO3)CC1` [TCMDC-143650] came in with a chromatographic logD in data set [1] of 3.48. The molecule also returned a solubility in data set [2] of 86 µg/mL (≈ 250 µM). Moreover, the “TOX50 HepG2” value in data set [3] is more than 100 µM. This molecule also returned an MIC in data set [5] of 1.25 µM (≈ 0.429 µg/mL). Moreover, the IC50 in data set [6] is 1260 nM. Besides, the “ACT In NR % inhibition” value in data set [7] was “INACTIVE”.
`O=C(NCc1ccco1)N1CCN(Cc2ccc3c(c2)CCO3)CC1` [TCMDC-143652] registered a chromatographic logD in data set [1] of 3.47. Also, the solubility in data set [2] worked out at 88 µg/mL (≈ 258 µM). The “TOX50 HepG2” value in data set [3] is more than 100 µM. Further, the MIC in data set [5] was 2 µM (≈ 0.683 µg/mL). Moreover, the IC50 in data set [6] is 2510 nM. Further, the “ACT In NR % inhibition” value in data set [7] is on record as “INACTIVE”.
Consider `Cc1ccc2oc(SCC(=O)Nc3nccs3)nc2n1` [TCMDC-143682], for which, in data set [4] (THP1 cells, the one compound of 26 tested that was not active), the “Inhibition of intracellular growth (active = pIC50 above 5)” value is reported as “all but one (TCMDC-143682) were active”.
As to `COc1ccc2nccc(NC(=O)C3CCN(CCc4ccc(Cl)cc4)CC3)c2n1` [TCMDC-143649], the chromatographic logD in data set [1] turned out to be 5.49. In data set [2], this molecule had a solubility of 4 µg/mL (≈ 9.41 µM). The “TOX50 HepG2” value in data set [3] is more than 100 µM. For the same molecule, the MIC in data set [5] turned out to be 0.2 µM (≈ 0.085 µg/mL). The IC50 in data set [6] was 5010 nM. Moreover, in data set [7], the “ACT In NR pXC50” value was 5,1 and the “ACT In NR % inhibition” value was “ACTIVE 7 expts out of 10 with inh > 50%”.
Take `NCC(c1cccs1)S(=O)(=O)c1ccccc1` (centres unmarked) [TCMDC-143655]: the chromatographic logD in data set [1] was determined as 2.5. For the same molecule, the concentration in solution in data set [2] (solubility) was 134 µg/mL (≈ 501 µM). Also, the “TOX50 HepG2” value in data set [3] was 32 µM. In addition, the MIC in data set [5] amounted to 2 µM (≈ 0.535 µg/mL). In data set [6], the IC50 is 5010 nM. Besides, in data set [7], the “ACT In NR % inhibition” value is reported as “INACTIVE”.
Regarding `O=C(NCc1ccco1)N1CCN(Cc2ccc(Cl)s2)CC1` [TCMDC-143653], the chromatographic logD in data set [1] came to 4.82. Further, the concentration in solution in data set [2] (solubility) came to 98 µg/mL (≈ 288 µM). In addition, the “TOX50 HepG2” value in data set [3] was more than 100 µM. For the same molecule, the IC50 is 2510 nM in data set [4] and 1260 nM in data set [6]. In addition, the MIC in data set [5] came out at 2 µM (≈ 0.68 µg/mL). Also, the “ACT In NR % inhibition” value in data set [7] is “INACTIVE”.
The molecule `NS(=O)(=O)c1ccc(Nc2cnc3ccccc3n2)cc1` [TCMDC-143656] returned a chromatographic logD in data set [1] of 1.07. This molecule also registered a solubility in data set [2] of 112 µg/mL (≈ 373 µM). For the same molecule, the “TOX50 HepG2” value in data set [3] is more than 100 µM. This molecule also had an MIC in data set [5] of 2 µM (≈ 0.601 µg/mL). Further, the IC50 in data set [6] is 6310 nM. Besides, the “ACT In NR % inhibition” value in data set [7] is reported as “INACTIVE”.
`CCCC/C=C/c1cc2ccncc2cc1OC1CCNCC1` [TCMDC-143651] returned a chromatographic logD in data set [1] of 3.61. In data set [2], this molecule gave a solubility of 36 µg/mL (≈ 116 µM). Also, the “TOX50 HepG2” value in data set [3] came out at 16 µM. The values for the IC50 in data set [4] and in data set [6] were 1260 nM and 2510 nM, respectively. In data set [5], this molecule returned a minimal inhibitory concentration (MIC) of 1.6 µM (≈ 0.497 µg/mL). Besides, the “ACT In NR % inhibition” value in data set [7] is given as “INACTIVE”.
Molecule `Nc1ccccc1Nc1ccc(Cl)cc1` [TCMDC-143654] came in with a chromatographic logD in data set [1] of 5.76. In data set [2], this molecule had a solubility of 59 µg/mL (≈ 270 µM). Moreover, in data set [3], the “TOX50 HepG2” value was found to be 79 µM. In data set [4], the IC50 was 15.8 nM. The same molecule displayed an MIC in data set [5] of 2 µM (≈ 0.437 µg/mL). Also, the IC50 in data set [6] was 100 nM. In addition, in data set [7], the “ACT In NR pXC50” value was 4,5 and the “ACT In NR % inhibition” value is “ACTIVE 8 expts out of 11 with inh > 50%”.

The record behind these values is PMC4671658, “Release of 50 new, drug-like compounds and their computational target predictions for open source anti-tubercular drug discovery” (PLoS ONE, 2015).
